Measurements published in ChEMBL document CHEMBL5316324, “Discovery, Characterization, and Engineering of LvIC, an α4/4-Conotoxin That Selectively Blocks Rat α6/α3β4 Nicotinic Acetylcholine Receptors” (J Med Chem, 2023).
Activity calls are given as the source filed them. No cut-off for these calls is given here. Peptide text beside a SMILES is read from it.

How the values were obtained:
Rattus norvegicus [1] = species: Rattus norvegicus; test: Selectivity index, ratio of IC50 for rat alpha6/alpha3beta4 K57T mutant nAChR expressed in Stage V-VI Xenopus laevis oocytes to IC50 for rat alpha6/alpha3beta4 nAChR expressed in Stage V-VI Xenopus laevis Oocytes by electrophysiological recording; type: cell-based
Oocyte [2] = test: (§1) Inhibition of rat alpha6/alpha3 E34M mutant beta4 nAChR expressed in Stage V-VI Xenopus laevis Oocytes assessed as inhibition of acetylcholine-induced current by measuring recovery at 10 uM preincubated with compound for 5 mins followed by washout in presence of acetylcholine by electrophysiological recording; type: cell-based; parameters: scale not given: the % may be the effect or the level left
[3] = target: Neuronal acetylcholine receptor; alpha3/beta4 (Rattus norvegicus, UniProt P04757+P12392); test: Inhibition of rat alpha3/beta4 nAChR expressed in Stage V-VI Xenopus laevis Oocytes assessed as inhibition of acetylcholine-induced current in presence of acetylcholine by electrophysiological recording; type: cell-based, Oocyte
Sequence of Neuronal acetylcholine receptor; alpha3/beta4 (P04757 whole entry): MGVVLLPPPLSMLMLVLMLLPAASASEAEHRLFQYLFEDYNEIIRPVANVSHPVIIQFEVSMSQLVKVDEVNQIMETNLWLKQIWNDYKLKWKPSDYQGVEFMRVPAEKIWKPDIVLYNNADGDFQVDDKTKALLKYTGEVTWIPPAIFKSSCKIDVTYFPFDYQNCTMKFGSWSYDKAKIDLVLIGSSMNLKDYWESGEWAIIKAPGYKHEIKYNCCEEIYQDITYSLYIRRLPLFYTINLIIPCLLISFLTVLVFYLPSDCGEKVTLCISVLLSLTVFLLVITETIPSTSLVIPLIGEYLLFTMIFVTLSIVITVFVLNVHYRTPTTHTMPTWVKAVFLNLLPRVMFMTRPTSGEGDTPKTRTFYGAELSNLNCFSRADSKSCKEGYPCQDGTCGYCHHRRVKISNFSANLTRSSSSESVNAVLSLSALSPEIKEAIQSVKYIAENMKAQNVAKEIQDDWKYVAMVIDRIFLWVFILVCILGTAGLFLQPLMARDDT
Sequence of Neuronal acetylcholine receptor; alpha3/beta4 (P12392 whole entry): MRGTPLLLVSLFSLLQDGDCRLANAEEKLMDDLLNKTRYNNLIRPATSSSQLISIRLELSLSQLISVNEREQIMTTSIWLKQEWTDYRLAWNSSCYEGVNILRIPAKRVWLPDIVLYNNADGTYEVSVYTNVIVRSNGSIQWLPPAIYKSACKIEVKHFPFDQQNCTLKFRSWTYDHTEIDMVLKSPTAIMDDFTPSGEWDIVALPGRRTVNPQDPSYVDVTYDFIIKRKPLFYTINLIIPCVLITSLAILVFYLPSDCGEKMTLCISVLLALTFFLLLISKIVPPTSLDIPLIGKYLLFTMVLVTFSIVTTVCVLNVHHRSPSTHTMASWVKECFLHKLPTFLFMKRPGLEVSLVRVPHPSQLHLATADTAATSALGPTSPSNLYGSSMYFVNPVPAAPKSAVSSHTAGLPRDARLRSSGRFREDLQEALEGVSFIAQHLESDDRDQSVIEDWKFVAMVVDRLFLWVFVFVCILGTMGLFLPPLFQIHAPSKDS

[4] = target: Neuronal acetylcholine receptor; alpha2/beta4 (Rattus norvegicus) (UniProt P12389+P12392); test: Inhibition of rat alpha2/beta4 nAChR expressed in Stage V-VI Xenopus laevis Oocytes assessed as inhibition of acetylcholine-induced current at 10 uM in presence of acetylcholine by electrophysiological recording relative to control; type: cell-based; settings: Oocyte
Rattus norvegicus [5] = species: Rattus norvegicus; test: Selectivity index, ratio of IC50 for rat alpha6/alpha3beta4 E34M mutant nAChR expressed in Stage V-VI Xenopus laevis oocytes to IC50 for rat alpha6/alpha3beta4 nAChR expressed in Stage V-VI Xenopus laevis Oocytes by electrophysiological recording; type: cell-based
[6] = target: T1, Nicotinic acetylcholine receptor alpha6/alpha3/beta4 (Rattus norvegicus) (UniProt P04757+P12392+P43143); test: Inhibition of rat alpha6/alpha3beta4 nAChR expressed in Stage V-VI Xenopus laevis Oocytes assessed as inhibition of acetylcholine-induced current at 10 uM in presence of acetylcholine by electrophysiological recording; type: cell-based; settings: Oocyte
Oocyte [7] = test: Inhibition of rat alpha6/alpha3 E195A mutant beta4 nAChR expressed in Stage V-VI Xenopus laevis Oocytes assessed as acetylcholine-induced current response at 100 nM in presence of 100 uM acetylcholine by electrophysiological recording relative to control; type: cell-based
[8] = target: Nicotinic acetylcholine receptor alpha1/beta1/epsilon/delta (Mus musculus, UniProt P02716+P04756+P09690+P20782); test: Inhibition of mouse alpha1/beta1deltaepsilon nAChR expressed in Stage V-VI Xenopus laevis Oocytes assessed as inhibition of acetylcholine-induced current in presence of acetylcholine by electrophysiological recording; type: cell-based, Oocyte
Sequence of Nicotinic acetylcholine receptor alpha1/beta1/epsilon/delta (P04756 whole entry): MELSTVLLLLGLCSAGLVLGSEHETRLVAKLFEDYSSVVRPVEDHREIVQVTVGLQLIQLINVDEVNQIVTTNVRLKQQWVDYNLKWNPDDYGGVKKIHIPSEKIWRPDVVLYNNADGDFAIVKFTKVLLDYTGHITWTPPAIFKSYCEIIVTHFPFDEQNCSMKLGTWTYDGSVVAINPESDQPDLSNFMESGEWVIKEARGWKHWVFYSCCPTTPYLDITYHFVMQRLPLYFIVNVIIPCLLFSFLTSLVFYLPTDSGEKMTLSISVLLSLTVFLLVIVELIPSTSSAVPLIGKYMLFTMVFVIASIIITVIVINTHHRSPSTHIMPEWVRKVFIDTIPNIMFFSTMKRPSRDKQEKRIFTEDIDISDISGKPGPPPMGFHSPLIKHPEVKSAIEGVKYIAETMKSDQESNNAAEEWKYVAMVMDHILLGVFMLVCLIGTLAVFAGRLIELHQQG
Sequence of Nicotinic acetylcholine receptor alpha1/beta1/epsilon/delta (P09690 whole entry): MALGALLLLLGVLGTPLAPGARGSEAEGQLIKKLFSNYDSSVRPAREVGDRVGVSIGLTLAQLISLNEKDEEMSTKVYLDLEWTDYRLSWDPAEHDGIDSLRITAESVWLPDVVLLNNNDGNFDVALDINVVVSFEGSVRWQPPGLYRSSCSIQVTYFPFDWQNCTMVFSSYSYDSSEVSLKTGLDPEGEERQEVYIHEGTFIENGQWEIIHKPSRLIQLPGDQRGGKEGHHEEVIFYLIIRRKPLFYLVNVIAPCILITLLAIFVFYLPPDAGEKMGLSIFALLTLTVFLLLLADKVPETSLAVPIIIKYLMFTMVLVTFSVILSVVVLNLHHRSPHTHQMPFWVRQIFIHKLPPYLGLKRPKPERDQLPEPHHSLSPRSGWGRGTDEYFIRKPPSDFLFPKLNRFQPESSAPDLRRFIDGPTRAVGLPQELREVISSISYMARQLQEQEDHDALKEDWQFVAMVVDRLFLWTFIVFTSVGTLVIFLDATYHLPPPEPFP
Sequence of Nicotinic acetylcholine receptor alpha1/beta1/epsilon/delta (P02716 whole entry): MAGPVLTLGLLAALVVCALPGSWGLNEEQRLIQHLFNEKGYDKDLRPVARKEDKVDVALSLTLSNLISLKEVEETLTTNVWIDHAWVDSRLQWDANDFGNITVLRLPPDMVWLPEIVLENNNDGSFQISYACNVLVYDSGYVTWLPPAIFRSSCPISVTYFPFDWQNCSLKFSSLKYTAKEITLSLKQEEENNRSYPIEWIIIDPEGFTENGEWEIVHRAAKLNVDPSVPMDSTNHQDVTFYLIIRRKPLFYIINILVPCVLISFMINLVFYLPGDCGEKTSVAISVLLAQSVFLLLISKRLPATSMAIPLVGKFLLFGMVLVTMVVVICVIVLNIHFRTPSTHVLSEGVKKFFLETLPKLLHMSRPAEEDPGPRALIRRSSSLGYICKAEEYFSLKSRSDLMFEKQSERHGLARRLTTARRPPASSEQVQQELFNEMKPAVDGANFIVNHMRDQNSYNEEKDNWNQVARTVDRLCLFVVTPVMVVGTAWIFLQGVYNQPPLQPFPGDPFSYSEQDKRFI
Sequence of Nicotinic acetylcholine receptor alpha1/beta1/epsilon/delta (P20782 whole entry): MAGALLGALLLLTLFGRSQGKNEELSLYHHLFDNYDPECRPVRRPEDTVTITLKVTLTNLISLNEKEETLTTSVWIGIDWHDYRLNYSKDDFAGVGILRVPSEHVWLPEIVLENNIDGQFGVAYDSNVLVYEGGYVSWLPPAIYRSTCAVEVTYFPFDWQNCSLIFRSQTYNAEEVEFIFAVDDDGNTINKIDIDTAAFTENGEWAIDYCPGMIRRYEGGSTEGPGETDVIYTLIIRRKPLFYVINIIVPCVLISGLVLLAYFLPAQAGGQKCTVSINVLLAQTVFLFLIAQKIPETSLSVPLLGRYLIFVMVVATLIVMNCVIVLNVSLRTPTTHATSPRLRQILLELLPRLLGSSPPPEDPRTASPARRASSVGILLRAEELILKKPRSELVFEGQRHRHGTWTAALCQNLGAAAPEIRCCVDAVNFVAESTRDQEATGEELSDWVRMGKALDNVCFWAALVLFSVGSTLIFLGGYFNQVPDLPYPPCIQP

[9] = target: Neuronal acetylcholine receptor; alpha2/beta2 (Rattus norvegicus) (UniProt P12389+P12390); test: Inhibition of rat alpha2/beta2 nAChR expressed in Stage V-VI Xenopus laevis Oocytes assessed as inhibition of acetylcholine-induced current at 10 uM in presence of acetylcholine by electrophysiological recording relative to control; type: cell-based; settings: Oocyte
Rattus norvegicus [10] = species: Rattus norvegicus; test: Selectivity index, ratio of IC50 for rat alpha6/alpha3 D152A mutant beta4 nAChR expressed in Stage V-VI Xenopus laevis oocytes to IC50 for rat alpha6/alpha3beta4 nAChR expressed in Stage V-VI Xenopus laevis Oocytes by electrophysiological recording; type: cell-based
[11] = target: Nicotinic acetylcholine receptor alpha9/alpha10 (Rattus norvegicus) (UniProt P43144+Q9JLB5); test: Inhibition of rat alpha9/alpha10 nAChR expressed in Stage V-VI Xenopus laevis Oocytes assessed as inhibition of acetylcholine-induced current at 10 uM in presence of acetylcholine by electrophysiological recording relative to control; type: cell-based; settings: Oocyte
[12] = target: Neuronal acetylcholine receptor subunit alpha-7 (Rattus norvegicus, UniProt Q05941); test: Inhibition of rat alpha7 nAChR expressed in Stage V-VI Xenopus laevis Oocytes assessed as inhibition of acetylcholine-induced current in presence of acetylcholine by electrophysiological recording; type: cell-based, Oocyte
Sequence of Neuronal acetylcholine receptor subunit alpha-7 (Q05941 whole entry): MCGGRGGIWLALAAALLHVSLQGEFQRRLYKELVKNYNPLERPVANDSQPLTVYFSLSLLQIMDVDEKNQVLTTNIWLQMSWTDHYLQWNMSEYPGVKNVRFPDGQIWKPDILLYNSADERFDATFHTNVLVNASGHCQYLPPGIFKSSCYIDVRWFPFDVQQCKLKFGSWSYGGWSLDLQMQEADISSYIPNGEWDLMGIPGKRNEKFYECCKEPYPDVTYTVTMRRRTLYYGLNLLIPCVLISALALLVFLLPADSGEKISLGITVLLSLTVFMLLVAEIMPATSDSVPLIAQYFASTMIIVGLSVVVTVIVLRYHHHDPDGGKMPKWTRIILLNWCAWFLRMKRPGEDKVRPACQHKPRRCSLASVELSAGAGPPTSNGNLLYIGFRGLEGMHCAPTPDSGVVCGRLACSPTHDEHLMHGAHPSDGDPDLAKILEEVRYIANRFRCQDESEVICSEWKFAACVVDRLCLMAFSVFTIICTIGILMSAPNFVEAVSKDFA

[13] = target: Neuronal acetylcholine receptor; alpha3/beta2 (Rattus norvegicus, UniProt P04757+P12390); test: Inhibition of rat alpha3/beta2 nAChR expressed in Stage V-VI Xenopus laevis Oocytes assessed as inhibition of acetylcholine-induced current in presence of acetylcholine by electrophysiological recording; type: cell-based, Oocyte
Sequence of Neuronal acetylcholine receptor; alpha3/beta2 (P04757 whole entry): as the sequence (P04757 whole entry) above
Sequence of Neuronal acetylcholine receptor; alpha3/beta2 (P12390 whole entry): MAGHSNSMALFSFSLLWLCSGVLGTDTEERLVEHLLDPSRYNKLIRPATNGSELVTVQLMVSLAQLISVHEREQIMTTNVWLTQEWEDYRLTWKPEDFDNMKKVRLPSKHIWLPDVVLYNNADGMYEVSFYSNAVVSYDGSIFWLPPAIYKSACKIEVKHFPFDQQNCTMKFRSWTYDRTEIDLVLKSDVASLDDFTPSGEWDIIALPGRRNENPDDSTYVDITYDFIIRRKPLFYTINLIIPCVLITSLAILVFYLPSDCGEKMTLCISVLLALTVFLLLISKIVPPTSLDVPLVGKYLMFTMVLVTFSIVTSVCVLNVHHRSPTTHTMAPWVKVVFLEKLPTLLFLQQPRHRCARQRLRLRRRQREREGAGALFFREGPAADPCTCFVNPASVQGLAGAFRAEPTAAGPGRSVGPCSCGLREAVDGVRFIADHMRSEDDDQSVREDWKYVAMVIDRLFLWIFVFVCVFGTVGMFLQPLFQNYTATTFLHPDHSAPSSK

[14] = target: Neuronal acetylcholine receptor; alpha4/beta2 (Rattus norvegicus) (UniProt P09483+P12390); test: Inhibition of rat alpha4/beta2 nAChR expressed in Stage V-VI Xenopus laevis Oocytes assessed as inhibition of acetylcholine-induced current at 10 uM in presence of acetylcholine by electrophysiological recording relative to control; type: cell-based; settings: Oocyte
[15] = target: T1, Nicotinic acetylcholine receptor alpha6/alpha3/beta4 (Rattus norvegicus); test: as §1, with “alpha6/alpha3beta4” for “alpha6/alpha3 E34M mutant beta4”, “recovery time” for “recovery”; type: cell-based; settings: Oocyte
[16] = target: Neuronal acetylcholine receptor; alpha2/beta2 (Rattus norvegicus, UniProt P12389+P12390); test: Inhibition of rat alpha2/beta2 nAChR expressed in Stage V-VI Xenopus laevis Oocytes assessed as inhibition of acetylcholine-induced current in presence of acetylcholine by electrophysiological recording; type: cell-based, Oocyte
[17] = Inhibition of rat alpha6/alpha3beta4 E34M mutant nAChR expressed in Stage V-VI Xenopus laevis Oocytes assessed as inhibition of acetylcholine-induced current in presence of acetylcholine by electrophysiological recording; type: cell-based; settings: Oocyte
[18] = target: Neuronal acetylcholine receptor; alpha4/beta4 (Rattus norvegicus, UniProt P09483+P12392); test: Inhibition of rat alpha4/beta4 nAChR expressed in Stage V-VI Xenopus laevis Oocytes assessed as inhibition of acetylcholine-induced current in presence of acetylcholine by electrophysiological recording; type: cell-based, Oocyte
Sequence of Neuronal acetylcholine receptor; alpha4/beta4 (P09483 whole entry): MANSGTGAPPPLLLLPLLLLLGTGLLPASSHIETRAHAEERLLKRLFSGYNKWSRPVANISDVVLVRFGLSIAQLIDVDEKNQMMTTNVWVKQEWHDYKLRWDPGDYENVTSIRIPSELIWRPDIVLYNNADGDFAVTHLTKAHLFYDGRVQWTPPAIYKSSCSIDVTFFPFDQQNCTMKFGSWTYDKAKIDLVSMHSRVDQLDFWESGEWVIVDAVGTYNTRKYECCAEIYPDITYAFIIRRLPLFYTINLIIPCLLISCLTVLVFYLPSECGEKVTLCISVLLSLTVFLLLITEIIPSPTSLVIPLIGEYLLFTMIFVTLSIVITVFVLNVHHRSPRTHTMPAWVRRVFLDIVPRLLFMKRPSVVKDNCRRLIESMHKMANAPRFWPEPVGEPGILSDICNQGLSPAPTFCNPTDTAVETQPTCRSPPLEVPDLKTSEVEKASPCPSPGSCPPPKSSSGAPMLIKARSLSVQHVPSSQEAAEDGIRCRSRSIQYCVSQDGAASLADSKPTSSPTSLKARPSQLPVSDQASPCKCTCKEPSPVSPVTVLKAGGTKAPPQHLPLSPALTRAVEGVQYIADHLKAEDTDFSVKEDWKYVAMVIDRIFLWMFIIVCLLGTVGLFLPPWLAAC
Sequence of Neuronal acetylcholine receptor; alpha4/beta4 (P12392 whole entry): as the sequence (P12392 whole entry) above

Oocyte [19] = test: Inhibition of rat alpha6/alpha3beta4 K57T mutant nAChR expressed in Stage V-VI Xenopus laevis Oocytes assessed as acetylcholine-induced current response at 100 uM in presence of 100 uM acetylcholine by electrophysiological recording relative to control; type: cell-based
Oocyte [20] = test: Inhibition of rat alpha6/alpha3 D152A mutant beta4 nAChR expressed in Stage V-VI Xenopus laevis Oocytes assessed as acetylcholine-induced current response at 1 uM in presence of 100 uM acetylcholine by electrophysiological recording relative to control; type: cell-based; parameters: scale not given: the % may be the effect or the level left
[21] = target: Neuronal acetylcholine receptor; alpha4/beta2 (Rattus norvegicus, UniProt P09483+P12390); test: Inhibition of rat alpha4/beta2 nAChR expressed in Stage V-VI Xenopus laevis Oocytes assessed as inhibition of acetylcholine-induced current in presence of acetylcholine by electrophysiological recording; type: cell-based, Oocyte
Sequence of Neuronal acetylcholine receptor; alpha4/beta2 (P09483 whole entry): as the sequence (P09483 whole entry) above
Sequence of Neuronal acetylcholine receptor; alpha4/beta2 (P12390 whole entry): as the sequence (P12390 whole entry) above

[22] = target: Neuronal acetylcholine receptor; alpha3/beta2 (Rattus norvegicus) (UniProt P04757+P12390); test: Inhibition of rat alpha3/beta2 nAChR expressed in Stage V-VI Xenopus laevis Oocytes assessed as inhibition of acetylcholine-induced current at 10 uM in presence of acetylcholine by electrophysiological recording relative to control; type: cell-based; settings: Oocyte
[23] = target: T1, Nicotinic acetylcholine receptor alpha6/alpha3/beta4 (Rattus norvegicus); test: Inhibition of rat alpha6/alpha3beta4 nAChR expressed in Stage V-VI Xenopus laevis Oocytes assessed as acetylcholine-induced current response at 1 uM in presence of 100 uM acetylcholine by electrophysiological recording relative to control; type: cell-based; parameters: scale not given: the % may be the effect or the level left; settings: Oocyte
[24] = target: Nicotinic acetylcholine receptor alpha1/beta1/epsilon/delta (Mus musculus) (UniProt P04756+P09690+P02716+P20782); test: Inhibition of mouse alpha1/beta1deltaepsilon nAChR expressed in Stage V-VI Xenopus laevis Oocytes assessed as inhibition of acetylcholine-induced current at 10 uM in presence of acetylcholine by electrophysiological recording relative to control; type: cell-based; settings: Oocyte

## CC(C)[C@H](NC(=O)[C@@H]1CCCN1C(=O)[C@H](CC(N)=O)NC(=O)[C@H](C)NC(=O)[C@H](CS)NC(=O)[C@H](CS)NC(=O)[C@@H](N)CCCNC(=N)N)C(=O)N[C@@H](CS)C(=O)N[C@@H](CC(N)=O)C(=O)NCC(=O)N[C@@H](CCCCN)C(=O)N[C@@H](Cc1cnc[nH]1)C(=O)N[C@@H](CS)C(N)=O (H-RCCANPVCNGKHC-NH2)
Rattus norvegicus [1]
  Ratio IC50: 7
Oocyte [2]
  Activity: 70%
[3]
  IC50: > 10 µM
[4]
  inhibition: < 50%
Rattus norvegicus [5]
  Ratio IC50: 0.97
[6]
  inhibition: Active
Oocyte [7]
  inhibition: 9.11%
[8]
  IC50: > 10 µM
[9]
  inhibition: < 50%
Rattus norvegicus [10]
  Ratio IC50: 24.7
[11]
  inhibition: < 50%
[12]
  IC50: > 10 µM
[13]
  IC50: > 10 µM
[14]
  inhibition: < 50%
[15]
  TIME: 0.333 h
[16]
  IC50: > 10 µM
[17]
  IC50: 18.5 nM
[18]
  IC50: > 10 µM
Oocyte [19]
  inhibition: 43.2%
Oocyte [20]
  Activity: 63.8%
[21]
  IC50: > 10 µM
[22]
  inhibition: < 50%
[23]
  Activity: 96%
[24]
  inhibition: < 50%
